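Cultured in 96-well plates, cells were exposed to test compound for 48 hours across five concentrations. GI50: concentration for 50% inhibition of growth.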 The source made the active and inactive calls. No stated cut-off is given here; in the data, active = GI50 up to about 1.1 µM and inactive = higher.
Key:
Experiment in all cases: DTP human tumour cell line panel, 48 h
A498 = tested on: A498
ACHN = tested on: ACHN
CCRF-CEM = tested on: CCRF-CEM
COLO 205 = tested on: COLO 205
DMS-114 = tested on: DMS-114
HL-60 = tested on: HL-60
HOP-62 = tested on: HOP-62
HOP-92 = tested on: HOP-92
HT-29 = tested on: HT-29
IGROV-1 = tested on: IGROV-1
K562 = tested on: K562
KM-20L2 = tested on: KM-20L2
KM12 = tested on: KM12
LXFL 529 = tested on: LXFL 529
M14 = tested on: M14
M19-MEL = tested on: M19-MEL
MOLT-4 = tested on: MOLT-4
Malme-3M = tested on: Malme-3M
NCI-H23 = tested on: NCI-H23
NCI-H460 = tested on: NCI-H460
NCI-H522 = tested on: NCI-H522
OVCAR-3 = tested on: OVCAR-3
OVCAR-4 = tested on: OVCAR-4
OVCAR-5 = tested on: OVCAR-5
RPMI-8226 = tested on: RPMI-8226
RXF 393 = tested on: RXF 393
SF-268 = tested on: SF-268
SF-295 = tested on: SF-295
SK-MEL-28 = tested on: SK-MEL-28
SK-MEL-2 = tested on: SK-MEL-2
SK-OV-3 = tested on: SK-OV-3
SNB-19 = tested on: SNB-19
SNB-75 = tested on: SNB-75
SNB-78 = tested on: SNB-78
SR = tested on: SR
U-251 = tested on: U-251
UACC-257 = tested on: UACC-257
UACC-62 = tested on: UACC-62
UO-31 = tested on: UO-31
786-0 = tested on: 786-0
A549 = tested on: A549
CAKI-1 = tested on: CAKI-1
DLD-1 = tested on: DLD-1
DMS-273 = tested on: DMS-273
EKVX = tested on: EKVX
HCC 2998 = tested on: HCC 2998
HCT-116 = tested on: HCT-116
HCT-15 = tested on: HCT-15
LOX IMVI = tested on: LOX IMVI
OVCAR-8 = tested on: OVCAR-8
SF-539 = tested on: SF-539
SK-MEL-5 = tested on: SK-MEL-5
SN12C = tested on: SN12C
SW-620 = tested on: SW-620
TK-10 = tested on: TK-10
HOP-18 = tested on: HOP-18
NCI-H226 = tested on: NCI-H226

CCO[C@@H]1OC(=O)[C@@](C)(C(C)=O)[C@@H]1C
GI50 (A498): > 100 µM (inactive)
GI50 (ACHN): > 100 µM (inactive)
GI50 (CCRF-CEM): 13 µM (inactive)
GI50 (COLO 205): 87.7 µM (inactive)
GI50 (DMS-114): 19.1 µM (inactive)
GI50 (HL-60): 23 µM (inactive)
GI50 (HOP-62): 20.8 µM (inactive)
GI50 (HOP-92): 26.1 µM (inactive)
GI50 (HT-29): 17.5 µM (inactive)
GI50 (IGROV-1): 36.5 µM (inactive)
GI50 (K562): 30.5 µM (inactive)
GI50 (KM-20L2): 41.4 µM (inactive)
GI50 (KM12): 28.4 µM (inactive)
GI50 (LXFL 529): 19.5 µM (inactive)
GI50 (M14): 26 µM (inactive)
GI50 (M19-MEL): 19.1 µM (inactive)
GI50 (MOLT-4): 19.2 µM (inactive)
GI50 (Malme-3M): 23.3 µM (inactive)
GI50 (NCI-H23): 14.5 µM (inactive)
GI50 (NCI-H460): > 100 µM (inactive)
GI50 (NCI-H522): > 100 µM (inactive)
GI50 (OVCAR-3): 14.4 µM (inactive)
GI50 (OVCAR-4): 29 µM (inactive)
GI50 (OVCAR-5): 60 µM (inactive)
GI50 (RPMI-8226): 18.7 µM (inactive)
GI50 (RXF 393): 24.1 µM (inactive)
GI50 (SF-268): 18.3 µM (inactive)
GI50 (SF-295): 20.1 µM (inactive)
GI50 (SK-MEL-28): 15.7 µM (inactive)
GI50 (SK-MEL-2): 20.4 µM (inactive)
GI50 (SK-OV-3): 43.6 µM (inactive)
GI50 (SNB-19): 19.1 µM (inactive)
GI50 (SNB-75): 3.27 µM (inactive)
GI50 (SNB-78): 25 µM (inactive)
GI50 (SR): 25.5 µM (inactive)
GI50 (U-251): 21 µM (inactive)
GI50 (UACC-257): 24.4 µM (inactive)
GI50 (UACC-62): 20.9 µM (inactive)
GI50 (UO-31): 37.9 µM (inactive)

NC(=O)N=C(NCc1ccccc1)NCc1ccccc1
GI50 (786-0): > 100 µM (inactive)
GI50 (A549): > 100 µM (inactive)
GI50 (ACHN): > 100 µM (inactive)
GI50 (CAKI-1): > 100 µM (inactive)
GI50 (COLO 205): > 100 µM (inactive)
GI50 (DLD-1): > 100 µM (inactive)
GI50 (DMS-273): > 100 µM (inactive)
GI50 (EKVX): > 100 µM (inactive)
GI50 (HCC 2998): > 100 µM (inactive)
GI50 (HCT-116): > 100 µM (inactive)
GI50 (HCT-15): > 100 µM
GI50 (HOP-62): > 100 µM (inactive)
GI50 (HOP-92): 20 µM (inactive)
GI50 (HT-29): > 100 µM (inactive)
GI50 (IGROV-1): > 100 µM (inactive)
GI50 (KM-20L2): > 100 µM (inactive)
GI50 (KM12): > 100 µM (inactive)
GI50 (LOX IMVI): > 100 µM (inactive)
GI50 (LXFL 529): > 100 µM (inactive)
GI50 (M14): > 100 µM (inactive)
GI50 (NCI-H23): > 100 µM (inactive)
GI50 (NCI-H460): > 100 µM (inactive)
GI50 (NCI-H522): > 100 µM (inactive)
GI50 (OVCAR-3): > 100 µM (inactive)
GI50 (OVCAR-4): > 100 µM (inactive)
GI50 (OVCAR-8): > 100 µM (inactive)
GI50 (SF-268): > 100 µM (inactive)
GI50 (SF-295): > 100 µM (inactive)
GI50 (SF-539): > 100 µM (inactive)
GI50 (SK-MEL-28): > 100 µM (inactive)
GI50 (SK-MEL-2): > 100 µM (inactive)
GI50 (SK-MEL-5): > 100 µM (inactive)
GI50 (SK-OV-3): > 100 µM (inactive)
GI50 (SN12C): > 100 µM (inactive)
GI50 (SNB-19): > 100 µM (inactive)
GI50 (SNB-78): > 100 µM (inactive)
GI50 (SW-620): > 100 µM (inactive)
GI50 (TK-10): > 100 µM (inactive)
GI50 (U-251): > 100 µM (inactive)
GI50 (UACC-257): > 100 µM (inactive)
GI50 (UACC-62): > 100 µM (inactive)
GI50 (UO-31): > 100 µM (inactive)

Nc1c(C(=O)N/N=C/c2ccc(Cl)cc2)sc(=S)n1-c1ccccc1
GI50 (A498): > 100 µM (inactive)
GI50 (A549): > 100 µM (inactive)
GI50 (ACHN): > 100 µM (inactive)
GI50 (CCRF-CEM): 22.3 µM (inactive)
GI50 (COLO 205): > 100 µM (inactive)
GI50 (DLD-1): > 100 µM (inactive)
GI50 (HCC 2998): > 100 µM (inactive)
GI50 (HCT-116): > 100 µM (inactive)
GI50 (HL-60): > 100 µM (inactive)
GI50 (HOP-18): > 100 µM (inactive)
GI50 (HOP-62): > 100 µM (inactive)
GI50 (HOP-92): > 100 µM (inactive)
GI50 (HT-29): > 100 µM (inactive)
GI50 (IGROV-1): > 100 µM (inactive)
GI50 (K562): 4.09 µM (inactive)
GI50 (KM12): > 100 µM (inactive)
GI50 (LXFL 529): > 100 µM (inactive)
GI50 (M19-MEL): > 100 µM (inactive)
GI50 (NCI-H226): > 100 µM (inactive)
GI50 (NCI-H23): > 100 µM (inactive)
GI50 (NCI-H460): 89.1 µM (inactive)
GI50 (NCI-H522): 31.6 µM (inactive)
GI50 (OVCAR-3): > 100 µM (inactive)
GI50 (OVCAR-5): > 100 µM (inactive)
GI50 (OVCAR-8): > 100 µM (inactive)
GI50 (SF-268): 40.8 µM (inactive)
GI50 (SF-295): > 100 µM (inactive)
GI50 (SF-539): 62.8 µM (inactive)
GI50 (SK-MEL-28): 41.9 µM (inactive)
GI50 (SK-MEL-5): 58.2 µM (inactive)
GI50 (SK-OV-3): > 100 µM (inactive)
GI50 (SNB-19): > 100 µM (inactive)
GI50 (SNB-75): 84.7 µM (inactive)
GI50 (SW-620): > 100 µM (inactive)
GI50 (TK-10): > 100 µM (inactive)
GI50 (U-251): > 10 µM (inactive)
GI50 (UACC-257): > 100 µM (inactive)
GI50 (UACC-62): > 100 µM (inactive)
GI50 (UO-31): > 100 µM (inactive)

— ChEMBL document CHEMBL1201862, “PubChem BioAssay data set” (2004)
